Assay results: patent US7419657B2, “Treatment of atherosclerotic disorders” (priority 2001, dated 2008)
“And” between values parts separate entries of the source, which are not always exact repeats. Equal entries are not always repeated. Structures can show the parent of a compound that is named as a salt. Where two headings read alike, the source gives them in different places.

Columns and labels:
anti-Chlamydia abzymes [1] = type: biochemical, human; design: key to In-vitro Inhibition: + = inhibition; − = no inhibition
anti-Chlamydia abzymes [2] = experiment: Serum abzyme activity in patients taking aspirin (Example 6); type: in vivo, human
anti-Chlamydia abzymes [3] = experiment: Anti-abzyme therapy trial in ischaemic heart disease: serum abzyme activity; type: in vivo, human
anti-Chlamydia abzymes [4] = experiment: Abzyme activity in angina patients reporting aspirin intake (Example 10); type: in vivo, human; details: for abzyme activity, + aspirin: individuals
lesion IgG = experiment: LDL peroxidation by lesion IgG with tested antioxidants; type: biochemical, human
Chlamydia = type: biochemical, Chlamydia pneumoniae or Chlamydia Psittaci
[5] = 10 μM of each Me2+-binding agent
[6] = 10 μM of each Me2+-binding agent, control 24.3
[7] = patient F, Silent Myocardial Ischaemia
[8] = LDL 480 μg of protein, +0.1 M antioxidant, control 0.49 ± 0.023

Q: `CC(=O)Oc1ccccc1C(=O)O` [Aspirin, acetylsalicylic acid] was tested. Which “In-vitro Inhibition” value (anti-Chlamydia abzymes [1]) did it give?
A: Its value is “+”.

Q: What about the “Result (inhibition of anti-Chlamydia abzymes)” value (anti-Chlamydia abzymes [1]; [5]) of the same molecule?
A: Its value is “Positive”.

Q: And the “Lipid oxidising activity of anti-Chlamydia abzymes” value (“Lipid oxidising activity” below) (anti-Chlamydia abzymes [1]; [6])?
A: Its value is 6.2 μM MDA/ml.

Q: What about the “Level of activity of anti-Chlamydia abzymes, 7 days after starting to take 250 mg of aspirin daily” value (anti-Chlamydia abzymes [2]; individual patients with CHD, before aspirin 45, 100, 45) of the same molecule?
A: Its value is “undetectably low level and 20 μM MDA/ml and 0 μM MDA/ml”.

Q: And the “inhibition of the abzyme activity” value (anti-Chlamydia abzymes [2]; one CHD patient, 250 mg aspirin daily, after a week)?
A: Its value is 5 fold.

Q: What about the “Level of activity of anti-Chlamydia abzymes, 7 days after re-starting to take 250 mg aspirin daily” value (anti-Chlamydia abzymes [2]; [7]) of the same molecule?
A: The value was 20 μM MDA/ml.

Q: What about the “Level of activity of anti-Chlamydia abzymes, after stopping taking aspirin for 7 days” value (anti-Chlamydia abzymes [2]; [7]) of the same molecule?
A: Its value is 65 μM MDA/ml.

Q: And the “Level of activity of anti-Chlamydia abzymes, aspirin intake 250 mg daily” value (anti-Chlamydia abzymes [2]; patient F, Silent Myocardial Ischaemia, regular intake)?
A: Its value is 10 μM MDA/ml.

Q: And the “Anti-Chlamydia abzyme activity, 60 days after the start of treatment” value (anti-Chlamydia abzymes [3]; Therapy Group D individual IHD patients, aspirin 250 mg daily, before 103, 253)?
A: Its value is 63 μM MDA/ml and 103 μM MDA/ml.

Q: What about the “Anti-Chlamydia abzyme activity, 60 days after the start of treatment” value (anti-Chlamydia abzymes [3]; Therapy Group D mean, before treatment 178) of the same molecule?
A: The value was 83.2 μM MDA/ml.

Q: And the “abzyme activity, + aspirin” value (anti-Chlamydia abzymes [4]; stable angina class I)?
A: Its value is 5 and 45 and 0 (3×) and 10.

Q: And the “abzyme activity, + aspirin” value (anti-Chlamydia abzymes [4]; stable angina class II)?
A: Its value is 5 (4×) and 10 (2×) and 0 (4×) and 25 and 22.5 and 3.3 and 16.7 and 30.

Q: And the “abzyme activity, + aspirin” value (anti-Chlamydia abzymes [4]; stable angina class III)?
A: The value was 0 (3×) and 45 and 5 and 35 and 15 and 30 and 105 and 20.

Q: What about the “abzyme activity, + aspirin” value (anti-Chlamydia abzymes [4]; unstable angina (IV)) of the same molecule?
A: Its value is 130 and 70 and 0 and 37 and 90 and 100 and 180.

Q: And the “individuals positive for abzymes, + aspirin” value (shortened to “individuals positive”) (anti-Chlamydia abzymes [4]; stable angina class I, 1/6)?
A: The value was 17%.

Q: And the “abzyme activity, + aspirin, group mean” value (anti-Chlamydia abzymes [4]; stable angina class I, n = 6, without aspirin 30.0)?
A: The value was 10.0.

Q: What about the “individuals positive” value (anti-Chlamydia abzymes [4]; stable angina class II, 4/15) of the same molecule?
A: The value was 27%.

Q: What about the “abzyme activity, + aspirin, group mean” value (anti-Chlamydia abzymes [4]; stable angina class II, n = 15, without aspirin 32.2) of the same molecule?
A: The value was 9.2.

Q: What about the “individuals positive” value (anti-Chlamydia abzymes [4]; stable angina class III, 6/10) of the same molecule?
A: The value was 60%.

Q: What about the “abzyme activity, + aspirin, group mean” value (anti-Chlamydia abzymes [4]; stable angina class III, n = 10, without aspirin 56.0) of the same molecule?
A: The value was 25.5.

Q: What about the “individuals positive” value (anti-Chlamydia abzymes [4]; unstable angina (IV), 6/7) of the same molecule?
A: The value was 86%.

Q: And the “abzyme activity, + aspirin, group mean” value (anti-Chlamydia abzymes [4]; unstable angina (IV), n = 7, without aspirin 119)?
A: The value was 86.7.

Q: Which “Level of MDA production by 0.82 μg of lesion IgG” value (“Level of MDA production” below) (lesion IgG; LDL 480 μg of protein, +1% antioxidant, control 0.49 ± 0.023) does the source give for `C[S+](C)[O-]` [DMSO] here?
A: Its value is 0 µM.

Q: And the “development of lipid oxidation reaction” value (Chlamydia)?
A: Its value is “completely abrogated”.

Q: For `O=C(O)CN(CCN(CC(=O)O)CC(=O)O)CCN(CC(=O)O)CC(=O)O` [DTPA], which “In-vitro Inhibition” value (anti-Chlamydia abzymes [1]) is on record?
A: Its value is “−”.

Q: What about the “Result (inhibition of anti-Chlamydia abzymes)” value (anti-Chlamydia abzymes [1]; [5]) of the same molecule?
A: Its value is “Negative”.

Q: What about the “Lipid oxidising activity” value (anti-Chlamydia abzymes [1]; [6]) of the same molecule?
A: The value was 45.2 μM MDA/ml.

Q: Which Anti-Abzyme activity (anti-Chlamydia abzymes [1]; drug 4.4 μM, control 21.7) does the source give for `O=[N+]([O-])OCC(CO[N+](=O)[O-])O[N+](=O)[O-]` [Glyceryl Trinitrate] here?
A: The Anti-Abzyme activity was 0 μM MDA/ml.

Q: What about the Anti-Abzyme activity (anti-Chlamydia abzymes [1]; drug 22 μM, control 21.7) of the same molecule?
A: Its Anti-Abzyme activity is 0 μM MDA/ml.

Q: And the Anti-Abzyme activity (anti-Chlamydia abzymes [1]; drug 44 μM, control 21.7)?
A: Its Anti-Abzyme activity is 0 μM MDA/ml.

Q: What about the Anti-Abzyme activity (anti-Chlamydia abzymes [1]; drug 220 μM, control 21.7) of the same molecule?
A: The Anti-Abzyme activity was 0 μM MDA/ml.

Q: With `O=[N+]([O-])O[C@H]1CO[C@H]2[C@@H]1OC[C@H]2O[N+](=O)[O-]` [Isosorbide Dinitrate] as the molecule, how does the Anti-Abzyme activity (anti-Chlamydia abzymes [1]; drug 42 μM, control 21.7) read?
A: Its Anti-Abzyme activity is 0 μM MDA/ml.

Q: And the Anti-Abzyme activity (anti-Chlamydia abzymes [1]; drug 211 μM, control 21.7)?
A: Its Anti-Abzyme activity is 0 μM MDA/ml.

Q: Which results are given for `CCC[C@@H]1C[C@@H](C(=O)N[C@@H]([C@H]2O[C@H](SC)[C@H](O)[C@@H](O)[C@H]2O)[C@@H](C)O)N(C)C1` [Lincomycin Hydrochloride]?
A: Anti-Abzyme activity (anti-Chlamydia abzymes [1]; drug 6.5 μM, control 21.7): 28.5 μM MDA/ml; Anti-Abzyme activity (anti-Chlamydia abzymes [1]; drug 13 μM, control 21.7): 30.3 μM MDA/ml

Q: How did the “In-vitro Inhibition” value (anti-Chlamydia abzymes [1]) turn out when `CC(C)(S)[C@@H](N)C(=O)O` [Penicillamine] was run?
A: The value was “+”.

Q: What about the “Result (inhibition of anti-Chlamydia abzymes)” value (anti-Chlamydia abzymes [1]; [5]) of the same molecule?
A: Its value is “Positive”.

Q: And the “Lipid oxidising activity” value (anti-Chlamydia abzymes [1]; [6])?
A: Its value is 0 μM MDA/ml.

Q: `O=C(O)c1ccccn1` [Picolinic acid] was tested. Which “In-vitro Inhibition” value (anti-Chlamydia abzymes [1]) did it give?
A: Its value is “+”.

Q: And the “Result (inhibition of anti-Chlamydia abzymes)” value (anti-Chlamydia abzymes [1]; [5])?
A: The value was “Positive”.

Q: What about the “Lipid oxidising activity” value (anti-Chlamydia abzymes [1]; [6]) of the same molecule?
A: Its value is 0 μM MDA/ml.

Q: `CC(C)NCC(O)COc1cccc2ccccc12` (stereo not drawn) [Propranolol Hydrochloride] was tested. Which Anti-Abzyme activity (anti-Chlamydia abzymes [1]; Hydrochloride) did it give?
A: The Anti-Abzyme activity was 21.3 μM MDA/ml and 18.3 μM MDA/ml.

Q: Which “lipid oxidising reaction in the test system” value (shortened to “lipid oxidising reaction”) (Chlamydia) does the source give for `CCCCCCCCCCCCOS(=O)(=O)[O-].[Na+]` [SDS] here?
A: The value was “no lipid oxidising reaction”.

Q: `N.N.O=S(=O)(O)O` [ammonium sulphate] was tested. Which “lipid oxidising reaction” value (Chlamydia) did it give?
A: The value was “no lipid oxidising reaction”.

Q: Which “Level of MDA production” value (lesion IgG) does the source give for `O=C1O[C@H]([C@@H](O)CO)C(O)=C1O` [ascorbic acid] here?
A: Its value is 0 µM.

Q: How did the “Level of MDA production” value (lesion IgG; [8]) turn out when `O=C(O)c1ccccc1` [benzole acid] was run?
A: The value was 0 µM.

Q: With `C=O` [formalin] as the molecule, how does the “lipid oxidising reaction” value (Chlamydia) read?
A: The value was “no lipid oxidising reaction”.

Q: Which “Level of MDA production” value (lesion IgG; [8]) does the source give for `O=C[O-].[Na+]` [sodium formate] here?
A: Its value is 0 µM.

Q: `Cc1c(C)c2c(c(C)c1O)CC[C@@](C)(CCC[C@H](C)CCC[C@H](C)CCCC(C)C)O2` [α-Tocopherol] was tested. Which “Lipid oxidising activity” value (anti-Chlamydia abzymes [1]; in DMSO, 1 μM, control 61) did it give?
A: Its value is 15 μM MDA/ml.

Q: And the “Lipid oxidising activity” value (anti-Chlamydia abzymes [1]; in DMSO, 10 μM, control 61)?
A: The value was 0 μM MDA/ml.

Q: Heparin was tested. Which Anti-Abzyme activity (anti-Chlamydia abzymes [1]; drug 0.1 mg/ml, control 21.7) did it give?
A: The Anti-Abzyme activity was 19.7 μM MDA/ml.

Q: With Igepal CA-630 as the molecule, how does the “development of lipid oxidation reaction” value (Chlamydia) read?
A: The value was “completely abrogated”.

Q: What about the “oxidation of the lipids in the bacteria by the extracted abzymes” value (Chlamydia) of the same molecule?
A: The value was “abolished”.

Q: What does the source list for Nadroparin Calcium?
A: Anti-Abzyme activity (anti-Chlamydia abzymes [1]; drug 95 UI, control 21.7): 20.5 μM MDA/ml; Anti-Abzyme activity (anti-Chlamydia abzymes [1]; drug 465 UI, control 21.7): 12.8 μM MDA/ml

Q: For Triton X-100, which “development of lipid oxidation reaction” value (Chlamydia) is on record?
A: Its value is “completely abrogated”.

Q: What about the “oxidation of the lipids in the bacteria by the extracted abzymes” value (Chlamydia) of the same molecule?
A: The value was “abolished”.
